# Target: GST-tagged-Wee1 kinase (Homo sapiens, UniProt P30291)
# Test: Wee1 time-resolved fluorescence equilibrium binding assay (displacement of Oregon Green-labeled ATP-competitive kinase probe)
# Method: Wee1 kinase was assayed using a time-resolved fluorescence equilibrium binding assay monitoring displacement of a rapidly reversible Oregon Green-labeled ATP-competitive kinase probe (N-(2-(2-(2-(4-(4-(5-chloro-4-(2-(1-hydroxycyclobutyl)thiazol-5-yl)-1H-pyrrolo[2,3-b]pyridin-2-yl)phenyl)piperazin-1-yl)ethoxy)ethoxy)ethyl)-2′,7′-difluoro-3′,6′-dihydroxy-3-oxo-3H-spiro[isobenzofuran-1,9′-xanthene]-5-carboxamide) by competitive Wee1 inhibitors.
# GST-tagged-Wee1 kinase, sequence (P30291 whole entry): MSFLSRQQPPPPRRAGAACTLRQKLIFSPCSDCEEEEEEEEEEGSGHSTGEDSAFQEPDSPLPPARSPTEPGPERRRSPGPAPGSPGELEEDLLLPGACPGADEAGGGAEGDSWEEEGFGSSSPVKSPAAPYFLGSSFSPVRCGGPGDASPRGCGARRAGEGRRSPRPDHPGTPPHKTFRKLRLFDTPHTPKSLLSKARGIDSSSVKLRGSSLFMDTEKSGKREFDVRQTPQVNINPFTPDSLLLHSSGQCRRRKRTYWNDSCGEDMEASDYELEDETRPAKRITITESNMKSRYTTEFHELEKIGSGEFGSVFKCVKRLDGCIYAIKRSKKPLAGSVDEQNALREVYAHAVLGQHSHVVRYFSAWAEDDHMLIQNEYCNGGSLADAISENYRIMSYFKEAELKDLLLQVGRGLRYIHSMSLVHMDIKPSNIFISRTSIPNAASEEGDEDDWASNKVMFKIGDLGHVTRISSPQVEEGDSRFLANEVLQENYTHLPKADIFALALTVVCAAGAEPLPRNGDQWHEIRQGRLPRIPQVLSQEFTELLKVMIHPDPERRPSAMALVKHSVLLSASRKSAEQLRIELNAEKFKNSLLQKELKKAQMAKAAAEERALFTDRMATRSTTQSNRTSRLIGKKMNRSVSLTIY
row,SMILES,Ki
1,"CCCc1nn(-c2ccccc2C)c(=O)c2cnc(Nc3ccc(N4CCN(C)CC4)cc3)nc12 [Example 18, 6-(2-methylphenyl)-2-{[4-(4-methylpiperazin-1-yl)phenyl]amino}-8-propylpyrimido[4,5-d]pyridazin-5(6H)-one]",4 nM
2,"CN1Cc2cc(Nc3ncc4c(=O)n(-c5ccccc5Cl)nc(-c5cccs5)c4n3)ccc2C2(CC2)C1 [Example 123, 6-(2-chlorophenyl)-2-[(2′-methyl-2′,3′-dihydro-1′H-spiro[cyclopropane-1,4′-isoquinolin]-7′-yl)amino]-8-(2-thienyl)pyrimido[4,5-d]pyridazin-5(6H)-one]",2 nM
3,"CN1CCCC(n2nc(-c3ccccn3)c3nc(Nc4ccc5c(c4)CNCC5(C)C)ncc3c2=O)C1 (stereo not shown) [Example 332, 2-[(4,4-dimethyl-1,2,3,4-tetrahydroisoquinolin-7-yl)amino]-6-(1-methylpiperidin-3-yl)-8-(pyridin-2-yl)pyrimido[4,5-d]pyridazin-5(6H)-one]",490 nM
4,"CN1CCN(c2ccc(Nc3ncc4c(=O)n(-c5c(F)cccc5Cl)nc(-c5ccncn5)c4n3)cc2)CC1 [Example 298, 6-(2-chloro-6-fluorophenyl)-2-{[4-(4-methylpiperazin-1-yl)phenyl]amino}-8-(pyrimidin-4-yl)pyrimido[4,5-d]pyridazin-5(6H)-one]",1.8 nM
5,"O=c1c2cnc(Nc3ccc4c(c3)CNCC4)nc2c(-c2ccncc2)nn1-c1c(Cl)cccc1Cl [Example 224, 6-(2,6-dichlorophenyl)-8-(pyridin-4-yl)-2-(1,2,3,4-tetrahydroisoquinolin-7-ylamino)pyrimido[4,5-d]pyridazin-5(6H)-one]",0.07 nM
6,"CC(=O)N1Cc2cc(Nc3ncc4c(=O)n(-c5c(Cl)cccc5Cl)nc(-c5ccccn5)c4n3)ccc2C2(CC2)C1 [Example 375, 2-[(2′-acetyl-2′,3′-dihydro-1′H-spiro[cyclopropane-1,4′-isoquinolin]-7′-yl)amino]-6-(2,6-dichlorophenyl)-8-(pyridin-2-yl)pyrimido[4,5-d]pyridazin-5(6H)-one]",1.2 nM
7,"C=CCn1nc(-c2ccccc2)c2nc(Nc3ccc(N4CCN(C)CC4)cc3)ncc2c1=O [Example 5, 6-allyl-2-{[4-(4-methylpiperazin-1-yl)phenyl]amino}-8-phenylpyrimido[4,5-d]pyridazin-5(6H)-one]",6 nM
8,"C=CCn1nc(-c2ccco2)c2nc(Nc3ccc4c(c3)CN(C)CC4)ncc2c1=O [Example 258, 8-(furan-2-yl)-2-[(2-methyl-1,2,3,4-tetrahydroisoquinolin-7-yl)amino]-6-(prop-2-en-1-yl)pyrimido[4,5-d]pyridazin-5(6H)-one]",2 nM
9,"CS(=O)(=O)N1CCN(c2ccc(Nc3ncc4c(=O)n(-c5c(Cl)cccc5Cl)nc(-c5ccncc5)c4n3)cc2)CC1 [Example 380, 6-(2,6-dichlorophenyl)-2-({4-[4-(methylsulfonyl)piperazin-1-yl]phenyl}amino)-8-(pyridin-4-yl)pyrimido[4,5-d]pyridazin-5(6H)-one]",0.61 nM
10,"C=CCn1nc(-c2ccc(Cl)cc2Cl)c2nc(Nc3ccc(N4CCN(C)CC4)cc3)ncc2c1=O [Example 47, 6-allyl-8-(2,4-dichlorophenyl)-2-{[4-(4-methylpiperazin-1-yl)phenyl]amino}pyrimido[4,5-d]pyridazin-5(6H)-one]",240 nM
11,"COc1cc(N2CCC(N3CCN(C)CC3)CC2)ccc1Nc1ncc2c(=O)n(-c3c(Cl)cccc3Cl)nc(C)c2n1 [Example 363, 6-(2,6-dichlorophenyl)-2-({2-methoxy-4-[4-(4-methylpiperazin-1-yl)piperidin-1-yl]phenyl}amino)-8-methylpyrimido[4,5-d]pyridazin-5(6H)-one]",40 nM
12,"CN1CCN(c2ccc(Nc3ncc4c(=O)n(-c5ccccc5)nc(-c5cccc(Cl)n5)c4n3)cc2)CC1 [Example 73, 8-(6-chloropyridin-2-yl)-2-{[4-(4-methylpiperazin-1-yl)phenyl]amino}-6-phenylpyrimido[4,5-d]pyridazin-5(6H)-one]",3 nM
13,"CC(=O)c1cccc(-c2nn(-c3c(Cl)cccc3Cl)c(=O)c3cnc(Nc4ccc(N5CCN(C)CC5)cc4)nc23)n1 [Example 175, 8-(6-acetylpyridin-2-yl)-6-(2,6-dichlorophenyl)-2-{[4-(4-methylpiperazin-1-yl)phenyl]amino}pyrimido[4,5-d]pyridazin-5(6H)-one]",0.2 nM
14,"C=CCn1nc(-c2ccccc2)c2nc(Nc3ccc(N4CCN(C(C)C)CC4)cc3)ncc2c1=O [Example 139, 6-allyl-2-{[4-(4-isopropylpiperazin-1-yl)phenyl]amino}-8-phenylpyrimido[4,5-d]pyridazin-5(6H)-one]",5 nM

# The remaining lines, values ahead:
row,Ki,SMILES
1,0.75 nM,"CCc1nn(-c2c(Cl)cccc2Cl)c(=O)c2cnc(Nc3ccc(N4CCN(C(C)=O)CC4)cc3)nc12 [Example 414, 2-{[4-(4-acetylpiperazin-1-yl)phenyl]amino}-6-(2,6-dichlorophenyl)-8-ethylpyrimido[4,5-d]pyridazin-5(6H)-one]"
2,0.27 nM,"O=c1c2cnc(Nc3ccc(N4CCNCC4)cc3)nc2c(C2CC2)nn1-c1c(Cl)cccc1Cl [Example 392, 8-cyclopropyl-6-(2,6-dichlorophenyl)-2-{[4-(piperazin-1-yl)phenyl]amino}pyrimido[4,5-d]pyridazin-5(6H)-one]"
3,0.47 nM,"Cc1nn(-c2c(Cl)cccc2Cl)c(=O)c2cnc(Nc3ccc4c(c3)CNC(=O)C4)nc12 [Example 467, 6-(2,6-dichlorophenyl)-8-methyl-2-[(3-oxo-1,2,3,4-tetrahydroisoquinolin-7-yl)amino]pyrimido[4,5-d]pyridazin-5(6H)-one]"
4,0.16 nM,"Cc1nn(-c2c(Cl)cccc2Cl)c(=O)c2cnc(Nc3ccc4c(c3)CN(C)C4(C)C)nc12 [Example 471, 6-(2,6-dichlorophenyl)-8-methyl-2-[(1,1,2-trimethyl-2,3-dihydro-1H-isoindol-5-yl)amino]pyrimido[4,5-d]pyridazin-5(6H)-one]"
5,0.55 nM,"CC(=O)N1CCc2cc(Nc3ncc4c(=O)n(-c5c(Cl)cccc5Cl)nc(C)c4n3)ccc2C1 [Example 449, 2-[(2-acetyl-1,2,3,4-tetrahydroisoquinolin-6-yl)amino]-6-(2,6-dichlorophenyl)-8-methylpyrimido[4,5-d]pyridazin-5(6H)-one]"
6,2.3 nM,"Cc1nn(-c2c(Cl)cccc2Cl)c(=O)c2cnc(Nc3cc4c(cc3Cl)CNCC4)nc12 [Example 472, 2-[(7-chloro-1,2,3,4-tetrahydroisoquinolin-6-yl)amino]-6-(2,6-dichlorophenyl)-8-methylpyrimido[4,5-d]pyridazin-5(6H)-one]"
7,2.4 nM,"Cc1nn(-c2c(Cl)cccc2Cl)c(=O)c2cnc(Nc3cccc(C(=O)N4CCN(C)CC4)c3)nc12 [Example 528, 6-(2,6-dichlorophenyl)-8-methyl-2-({3-[(4-methylpiperazin-1-yl)carbonyl]phenyl}amino)pyrimido[4,5-d]pyridazin-5(6H)-one]"
8,2.4 nM,"Cc1nn(-c2c(Cl)cccc2Cl)c(=O)c2cnc(Nc3cccc(N4CCN(CCCCl)CC4)c3)nc12 [Example 507, 2-({3-[4-(3-chloropropyl)piperazin-1-yl]phenyl}amino)-6-(2,6-dichlorophenyl)-8-methylpyrimido[4,5-d]pyridazin-5(6H)-one]"

# Source: patent publication US8796289B2 (AbbVie Inc., priority 2011, dated 2014)
